Experimental data published in US20130204033A1, “ANTIPROLIFERATIVE COMPOUNDS, CONJUGATES THEREOF, METHODS THEREFOR, AND USES THEREOF” (Medarex, Inc., priority 2009, published 2013).
Where two headings read alike, the source gives them in different places.

Key:
Type in all cases: cell-based, human
NCI-H460 [1] = test: 3H thymidine proliferation assay, NCI-H460
How it was run: (§1)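 EC50 from ^3H-thymidine uptake: 1.0 μCi/well pulse during final 24 h of a 72 h exposure; scintillation count. 1.0×10^4 cells/well, seeded 3 h before 1:3 serial dilutions of unconjugated compound or conjugate.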

Hep3B = test: ATP luminescence proliferation assay, Hep3B
How it was run: (§2)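 Seed 1.0×10^3 cells/well (3 h); add 1:3 dilution series of compound or conjugate; incubate 48, 72 or 96 h; measure ATP by luminescence; fit EC50 (50% inhibition of proliferation).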

Nomo-1 = test: ATP luminescence proliferation assay, Nomo-1
How it was run: as §2

HCT-15 = test: 3H thymidine proliferation assay, HCT-15
How it was run: as §1

RPMI-8226 = test: ATP luminescence proliferation assay, RPMI-8226
How it was run: as §2

BT474 = test: ATP luminescence proliferation assay, BT474
How it was run: as §2

HL-60 = test: ATP luminescence proliferation assay, HL-60
How it was run: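 Cells seeded at 1.0×10^3 cells/well for 3 h, then exposed to 1:3 serial dilutions of free compounds or conjugates for 48, 72 or 96 h, as noted. ATP measured by luminescent cell viability kit; EC50 taken as concentration reducing proliferation by 50%.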

SW-620 = test: ATP luminescence proliferation assay, SW-620
How it was run: as §2

SW-480 = test: ATP luminescence proliferation assay, SW-480
How it was run: as §2

A2058 = test: ATP luminescence proliferation assay, A2058
How it was run: as §2

A549 = test: 3H thymidine proliferation assay, A549
How it was run: as §1

OVCAR8 = test: 3H thymidine proliferation assay, OVCAR8
How it was run: as §1

DMS53 = test: 3H thymidine proliferation assay, DMS53
How it was run: as §1

NCI-H460 [2] = test: ATP luminescence proliferation assay, NCI-H460
How it was run: as §2

H740 = test: 3H thymidine proliferation assay, H740
How it was run: as §1

PC3 = test: 3H thymidine proliferation assay, PC3
How it was run: as §1

OVCAR3 = test: ATP luminescence proliferation assay, OVCAR3
How it was run: as §2

CEM-Cl = test: ATP luminescence proliferation assay, CEM-C1
How it was run: as §2

[3] = 3H thymidine method, 72 h incubation, read-out: EC50, NCI-H460
[4] = ATP luminescence, 48 h incubation, read-out: EC50 Hep3B (48 h)
[5] = ATP luminescence, Nomo-1, 48 h incubation, read-out: EC50 Nomo-1 (48 h)
[6] = 3H thymidine method, 72 h incubation, read-out: EC50, HCT-15
[7] = ATP luminescence, BT474, 48 h incubation, read-out: EC50 BT474 (48 h)
[8] = ATP luminescence, SW-620, 96 h incubation, read-out: EC50 SW-620 (96 h)
[9] = ATP luminescence, SW480, 96 h incubation, read-out: EC50 SW480 (96 h)
[10] = 3H thymidine method, 72 h incubation, read-out: EC50, A549
[11] = 3H thymidine method, 72 h incubation, read-out: EC50, OVCAR8
[12] = 3H thymidine method, 72 h incubation, read-out: EC50, DMS53
[13] = ATP luminescence, NCI-H460, 72 h incubation, read-out: EC50 NCI-H460 (72 h)
[14] = 3H thymidine method, 72 h incubation, read-out: EC50, H740
[15] = 3H thymidine method, 72 h incubation, read-out: EC50, PC3
[16] = Homo sapiens, NCI-H460, read-out: EC50, NCI-H460, 3H thymidine method, 72 h incubation
[17] = Homo sapiens, 48 h, read-out: EC50 Hep3B (48 h), ATP luminescence, Hep3B, 48 h incubation
[18] = Homo sapiens, NOMO-1, 72 h, read-out: EC50 Nomo-1 (72 h), ATP luminescence, Nomo-1, 72 h incubation
[19] = Homo sapiens, HCT-15, read-out: EC50, HCT-15, 3H thymidine method, 72 h incubation
[20] = Homo sapiens, RPMI-8226, 72 h, read-out: EC50 RPMI-8226 (72 h), ATP luminescence, RPMI-8226, 72 h incubation
[21] = Homo sapiens, BT-474, 48 h, read-out: EC50 BT474 (48 h), ATP luminescence, BT474, 48 h incubation
[22] = Homo sapiens, HL-60, 72 h, read-out: EC50 HL-60 (72 h), ATP luminescence, HL-60, 72 h incubation
[23] = Homo sapiens, SW-620, 96 h, read-out: EC50 SW-620 (96 h), ATP luminescence, SW-620, 96 h incubation
[24] = Homo sapiens, SW480, 96 h, read-out: EC50 SW480 (96 h), ATP luminescence, SW480, 96 h incubation
[25] = Homo sapiens, A2058, 48 h, read-out: EC50 A2058 (48 h), ATP luminescence, A2058, 48 h incubation
[26] = Homo sapiens, A549, read-out: EC50, A549, 3H thymidine method, 72 h incubation
[27] = Homo sapiens, OVCAR-8, read-out: EC50, OVCAR8, 3H thymidine method, 72 h incubation
[28] = Homo sapiens, DMS-53, read-out: EC50, DMS53, 3H thymidine method, 72 h incubation
[29] = Homo sapiens, NCI-H460, 48 h, read-out: EC50 NCI-H460 (48 h), ATP luminescence, NCI-H460, 48 h incubation
[30] = Homo sapiens, read-out: EC50, H740, 3H thymidine method, 72 h incubation
[31] = Homo sapiens, PC-3, read-out: EC50, PC3, 3H thymidine method, 72 h incubation
[32] = Homo sapiens, OVCAR-3, 48 h, read-out: EC50 OVCAR3 (48 h), ATP luminescence, OVCAR3, 48 h incubation
[33] = Homo sapiens, CEM/C1, 72 h, read-out: EC50 CEM-C1 (72 h), ATP luminescence, CEM-C1, 72 h incubation

| Structure (SMILES) | EC50 (NCI-H460 [1]; [3]) [nM] | EC50 (Hep3B; [4]) [nM] | EC50 (Nomo-1; [5]) [nM] | EC50 (HCT-15; [6]) [nM] | EC50 (BT474; [7]) [nM] | EC50 (SW-620; [8]) [nM] | EC50 (SW-480; [9]) [nM] | EC50 (A549; [10]) [nM] | EC50 (OVCAR8; [11]) [nM] | EC50 (DMS53; [12]) [nM] | EC50 (NCI-H460 [2]; [13]) [nM] | EC50 (H740; [14]) [nM] | EC50 (PC3; [15]) [nM] | EC50 (NCI-H460 [1]; [16]) [nM] | EC50 (Hep3B; [17]) [nM] | EC50 (Nomo-1; [18]) [nM] | EC50 (HCT-15; [19]) [nM] | EC50 (RPMI-8226; [20]) [nM] | EC50 (BT474; [21]) [nM] | EC50 (HL-60; [22]) [nM] | other results |
| --- | --- | --- | --- | --- | --- | --- | --- | --- | --- | --- | --- | --- | --- | --- | --- | --- | --- | --- | --- | --- | --- |
| CC[C@H](C)[C@H](NC(=O)[C@H]1CCCCN1C)C(=O)N(COC(=O)CC(C)C)[C@H](C[C@@H](OC(C)=O)c1nc(C(=O)N[C@@H](Cc2ccccc2)C(=O)OC)cs1)C(C)C [Compound 29] | 0.21 | 1.6 | 0.24 | 0.18 | 1.5 | 1.5 | 2.7 | 0.44 | 0.7 | 0.28 | 3 | 0.41 | 0.21 | – | – | – | – | – | – | – | EC50 (RPMI-8226; ATP luminescence, RPMI-8226, 72 h incubation, read-out: EC50 RPMI-8226 (72 h)): 1 nM; EC50 (HL-60; ATP luminescence, HL-60, 48 h incubation, read-out: EC50 HL-60 (48 h)): 0.59 nM; EC50 (A2058; ATP luminescence, A2058, 72 h incubation, read-out: EC50 A2058 (72 h)): 2.9 nM; EC50 (OVCAR3; ATP luminescence, OVCAR3, 48 h incubation, read-out: EC50 OVCAR3 (48 h)): > 100 nM; EC50 (CEM-Cl; ATP luminescence, CEM-C1, 72 h incubation, read-out: EC50 CEM-C1 (72 h)): 0.85 nM |
| CC[C@H](C)[C@H](NC(=O)[C@H]1CCCCN1C)C(=O)N(C)[C@H](C[C@@H](OC)c1nc(C(=O)NC(Cc2ccccc2)C[C@H](C)C(=O)O)cs1)C(C)C (stereo partly drawn) [Compound 15] | – | – | – | – | – | – | – | – | – | – | – | – | – | 2 | 6.3 | 2.7 | 67 | 2.6 | 3.5 | 2.7 | EC50 (SW-620; [23]): 3.7 nM; EC50 (SW-480; [24]): 5.6 nM; EC50 (A2058; [25]): 3.5 nM; EC50 (A549; [26]): 2.1 nM; EC50 (OVCAR8; [27]): 423 nM; EC50 (DMS53; [28]): 37 nM; EC50 (NCI-H460 [2]; [29]): 6.7 nM; EC50 (H740; [30]): 2.3 nM; EC50 (PC3; [31]): 1.7 nM; EC50 (OVCAR3; [32]): > 100 nM; EC50 (CEM-Cl; [33]): 2.6 nM |
| CCCC(NC(=O)c1csc([C@@H](C[C@H](C(C)C)N(C)C(=O)[C@@H](NC(=O)[C@H]2CCCCN2C)[C@@H](C)CC)OC)n1)C(=O)OC (stereo partly drawn) [Compound 17] | – | – | – | – | – | – | – | – | – | – | – | – | – | > 100 | > 100 | 3.9 | 392 | 15 | 23 | 7.4 | EC50 (SW-620; [23]): 65 nM; EC50 (SW-480; [24]): 92 nM; EC50 (A2058; [25]): 30 nM; EC50 (A549; [26]): > 100 nM; EC50 (OVCAR8; [27]): 2970 nM; EC50 (DMS53; [28]): > 100 nM; EC50 (NCI-H460 [2]; [29]): 69 nM; EC50 (H740; [30]): 32 nM; EC50 (PC3; [31]): 82 nM; EC50 (OVCAR3; [32]): > 100 nM; EC50 (CEM-Cl; [33]): 26 nM |
| CC[C@H](C)[C@H](NC(=O)[C@H]1CCCCN1C)C(=O)N(COC)[C@H](C[C@@H](OC)c1nc(C(=O)N[C@@H](Cc2ccccc2)C(=O)OC)cs1)C(C)C [Compound 29c] | 15 | 75 | 2.9 | 2.4 | 492 | 8.4 | 41 | 6.5 | 1.4 | 76 | 6 | 5.3 | 11 | – | – | – | – | – | – | – | EC50 (RPMI-8226; ATP luminescence, RPMI-8226, 48 h incubation, read-out: EC50 RPMI-8226 (48 h)): 70 nM; EC50 (HL-60; ATP luminescence, HL-60, 72 h incubation, read-out: EC50 HL-60 (72 h)): 8.6 nM; EC50 (A2058; ATP luminescence, A2058, 48 h incubation, read-out: EC50 A2058 (48 h)): 32 nM; EC50 (OVCAR3; ATP luminescence, OVCAR3, 72 h incubation, read-out: EC50 OVCAR3 (72 h)): 99 nM; EC50 (CEM-Cl; ATP luminescence, CEM-C1, 48 h incubation, read-out: EC50 CEM-C1 (48 h)): 20 nM |
